Assay results from publication PMC7822874, “Chemoprotective antimalarials identified through quantitative high-throughput screening of Plasmodium blood and liver stage parasites” (Scientific Reports, 2021).
Like-named read-outs stand apart in the source and are kept apart here.

How the values were obtained:
[1] = test system: Plasmodium falciparum Dd2 asexual blood stage parasites; experiment: microbe, parasite or virus in culture; parameters: species or system Plasmodium falciparum Dd2 in human erythrocytes; single determination (one 11-point concentration-response curve); settings: Plasmodium falciparum, DD2, Erythrocyte, 72 h
in vitro = settings: human, hepg2 cells
HepG2 = settings: human, hepg2 cells, 48 h

| Compound | AC50 ([1]; read-out: AC50) | CC50 at 48 h (in vitro) | Log AC50 (M) (HepG2) | AC50 [1] |
| --- | --- | --- | --- | --- |
| CC(C)(C)OC(=O)N1CCC(c2c(C(=O)NCCN3CCC(Cc4ccccc4)CC3)cnn2-c2ccc(F)cc2)CC1 [NCGC00126694-01] | 5.31 µM | 43.2 µM | -4.3643 M | – |
| Cc1ccc(C)c(N2CCN(CCCNC(=O)c3cnn(-c4cccc(Cl)c4)c3C3CCN(C(=O)OC(C)(C)C)CC3)CC2)c1 [NCGC00126914-01] | 8.41 µM | 43.2 µM | -4.3643 M | – |
| CC1CCCCN1CCCNC(=O)c1ccc2c(c1)sc1nc(-c3ccc(F)cc3)cn12 (stereo not drawn) [NCGC00121681-01] | 1.88 µM | 30.6 µM | -4.5143 M | – |
| COc1ccc(/C=C/C(=O)Nc2ccc3nc4c(c(Nc5ccccc5OC)c3c2)CCCC4)cc1 [NCGC00104041-01] | 3.35 µM | 34.3 µM | -4.4643 M | – |
| Cc1noc(C)c1Cc1ccc(C(=O)N2[C@H]3CC[C@@H]2c2cnc(-c4ccccc4)nc2C3)o1 [NCGC00458744-01] | 9.44 µM | 27.3 µM | -4.5643 M | – |
| CC(=O)C1=C(c2ccc(Cl)c(Cl)c2)N(C(C)=O)n2cnnc2S1 [NCGC00137238-01] | 3.76 µM | 43.2 µM | -4.3643 M | – |
| COc1ccccc1-c1ccc(CN2CCCC(c3nc4ccc(F)cc4c(=O)[nH]3)C2)cc1 (stereo not drawn) [NCGC00377223-02] | 8.41 µM | 43.2 µM | -4.3643 M | – |
| CCCCNc1cc(C)nc(NCc2ccccc2)n1 [MLS000078573-01] | 9.44 µM | 34.3 µM | -4.4643 M | – |
| CC1CCCN(Cc2c(O)ccc3c4c(c(=O)oc23)CCCC4)C1 (stereo not drawn) [MLS000778333-01] | 6.68 µM | 12.2 µM | -4.9143 M | – |
| CC(C)C[C@@H]1N[C@H](C(=O)NC(C)C)Cc2cn(Cc3ccncc3)c3cccc1c23 [NCGC00395386-01] | 17.2 µM | 44.4 µM | -4.3528 M | – |
| CCC(CC)c1cc([C@H]2CN3CC[C@H]2C[C@@H]3COC(=O)Nc2ccc(C(C)(C)C)cc2)nc(-c2ccncc2)n1 [NCGC00394559-01] | 2.11 µM | 43.2 µM | -4.3643 M | – |
| O=C(Nc1nnc(SCc2ccc(F)cc2)s1)c1ccccn1 [MLS001003501-01] | 8.41 µM | 10.9 µM | -4.9643 M | – |
| CCN1C(=O)C2(CCN([S+](=O)([O-])c3ccc(Cl)cc3C)CC2)c2ccccc21 [NCGC00435870-01] | 5.31 µM | 34.3 µM | -4.4643 M | – |
| COc1cccc(Nc2ccc3c(n2)C(C)(C(=O)NC2CCN(C)CC2)CN(C)C3)c1 (stereo not drawn) [NCGC00414505-01] | 17.2 µM | 55.9 µM | -4.2528 M | – |
| O=C1NCN(c2ccccc2)C12CCN(CCCC(c1ccc(F)cc1)c1ccc(F)cc1)CC2 [NCGC00015424-04] | 5.31 µM | 43.2 µM | -4.3643 M | – |
| Cc1ccc(Oc2c(C)[nH]c(-c3ccccc3)nc2=O)cc1 [MLS000851017-01] | 5.31 µM | 43.2 µM | -4.3643 M | – |
| FC(F)(F)c1cnc(N2CCCN(C(S)=Nc3ccccc3)CC2)c(Cl)c1 [MLS000833545-01] | 4.73 µM | 43.2 µM | -4.3643 M | – |
| COC(=O)C1=C(C)NC(C)=C(C(=O)OCCCN2CCC(c3ccccc3)(c3ccccc3)CC2)C1c1cccc([N+](=O)[O-])c1.Cl (stereo not drawn) [NCGC00163135-01] | – | 43.2 µM | -4.3643 M | 2.99 µM |
| Cc1cc(Nc2ccc(Cl)cc2)nc(NCc2ccccc2)n1 [MLS000591025-01] | 0.422 µM | 43.2 µM | -4.3643 M | – |
| CCN1CCN(c2cc(C)c3cc(NC(=O)/C=C/c4ccc(OCCC(C)C)cc4)ccc3n2)CC1 [NCGC00103856-01] | 2.11 µM | 30.6 µM | -4.5143 M | – |
| CCCCN(CC)CCCNC(=O)c1ccc2c(c1)N(Cc1ccc(C)cc1)C(=O)c1ccccc1S2 [NCGC00139764-01] | 1.88 µM | 43.2 µM | -4.3643 M | – |
| O=C(Nc1ccc([N+](=O)[O-])cc1)Nc1ccc(OC(F)F)c(Cl)c1 [MLS000581434-01] | 2.66 µM | 30.6 µM | -4.5143 M | – |
| CN1CCC(Nc2ncc3ncnc(Nc4ccc(F)c(Cl)c4)c3n2)CC1.Cl.Cl [NCGC00161422-01] | 10.6 µM | 17.2 µM | -4.7643 M | – |
| C=C(C)COc1ccc(-c2n[nH]c(C)c2-c2ccccc2)c(O)c1 [MLS000083081-01] | 4.73 µM | 43.2 µM | -4.3643 M | – |
| O[C@H]1[C@H](NCC2CCCCC2)[C@H]2CO[C@H](O2)[C@@H]1N1CCC(Cc2ccccc2)CC1 [NCGC00394729-01] | 1.37 µM | 49.8 µM | -4.3028 M | – |

| Compound | AC50 ([1]; read-out: AC50) | CC50 at 48 h (in vitro) | Log AC50 (M) (HepG2) | AC50 [1] |
| --- | --- | --- | --- | --- |
| COc1cc2nc(N3CCN(c4cc(C)ccc4C)CC3)nc(N)c2cc1OC.Cl [MLS001199642-01] | 6.68 µM | 43.2 µM | -4.3643 M | – |
| Cc1ccc(C)c(N2CCN(CCCNC(=O)c3cnn(-c4ccc(F)cc4)c3C3CCN(C(=O)OC(C)(C)C)CC3)CC2)c1 [NCGC00126698-01] | 2.66 µM | 43.2 µM | -4.3643 M | – |
| COc1ccc(NC(=O)OC[C@H]2C[C@@H]3CCN2C[C@@H]3c2cc(C3CCCC3)nc(-c3ccncc3)n2)cc1 [NCGC00421346-01] | 4.22 µM | 43.2 µM | -4.3643 M | – |
| CCOc1ccc(NS(=O)(=O)c2csc(C(N)=O)c2)cc1 [MLS001199948-01] | 7.5 µM | 24.3 µM | -4.6143 M | – |
| CN(C)CCCNc1c2ccccc2nc2ccccc12 [MLS001198528-01] | 4.22 µM | 12.2 µM | -4.9143 M | – |
| COc1ccc(-[n+]2c(-c3ccc(Br)cc3)cn3c2CCc2ccccc2-3)cc1.[Br-] [MLS000391920-01] | 4.22 µM | 43.2 µM | -4.3643 M | – |
| Cc1ccc(CNCc2cc3c(C(C)(C)C)nn(-c4ccccc4)c3[nH]c2=O)cc1 [MLS000067257-01] | 0.266 µM | 43.2 µM | -4.3643 M | – |
| Cc1ccc([S+](=O)([O-])NC[C@H]2C[C@@H]3CC[N@]2C[C@@H]3CN2CCc3ccccc32)cc1 [NCGC00421178-01] | – | 55.9 µM | -4.2528 M | 13.7 µM |
| COC(=O)C1=C(C)NC(C)=C(C(=O)OC(C)(C)CN(C)CCC(c2ccccc2)c2ccccc2)C1c1cccc([N+](=O)[O-])c1.Cl (stereo not drawn) [NCGC00167492-01] | 2.99 µM | 24.3 µM | -4.6143 M | – |
| COc1ccc(C2=CC(c3ccc(F)cc3)n3ncc(C(=O)Nc4ccc(C)cc4)c3N2)cc1 (stereo not drawn) [NCGC00127228-01] | 2.37 µM | 30.6 µM | -4.5143 M | – |
| COc1ccc(NC(=O)c2ccc(Cl)c(S(=O)(=O)N3CCc4ccccc4C3)c2)cn1 [MLS000057537-01] | 7.5 µM | 34.3 µM | -4.4643 M | – |
| Cc1cc(NCc2ccccn2)n2nc(C)c(-c3ccccc3)c2n1 [MLS000559925-01] | 13.3 µM | 1.09 µM | -5.9643 M | – |
| COc1ccc2nc(C)cc(NCc3cccc(C(F)(F)F)c3)c2c1 [MLS001174340-01] | 2.11 µM | 30.6 µM | -4.5143 M | – |
| CCCCC(=O)NC(c1cccc([N+](=O)[O-])c1)c1c(OC(C)=O)ccc2ccccc12 (stereo not drawn) [MLS000527046-01] | 3.76 µM | 43.2 µM | -4.3643 M | – |
| CC(C)(C)c1ccc(NC(=O)OC[C@H]2C[C@@H]3CCN2C[C@@H]3c2cc(C3CCCC3)nc(-c3ccncc3)n2)cc1 [NCGC00391636-01] | 2.11 µM | 43.2 µM | -4.3643 M | – |
| CCN(CC)CCNC(=O)c1ccc(NC(=O)c2cn(-c3ccc(F)cc3)nc2-c2cccc(OC)c2)cc1 [MLS001233779-01] | 9.44 µM | 30.6 µM | -4.5143 M | – |
| CCOc1ccccc1NC(=O)Nc1ccc2nc(N3CCN(C)CC3)cc(C)c2c1 [NCGC00126491-01] | 1.33 µM | 43.2 µM | -4.3643 M | – |
| O=C(c1cc(NC(=O)C23CC4CC(CC(C4)C2)C3)cc(NC(=O)C23CC4CC(CC(C4)C2)C3)c1)N1CCCCC1 [MLS000549502-01] | 5.96 µM | 43.2 µM | -4.3643 M | – |
| CCCC1=Nc2cc(C(=O)NCCCN3CCCCC3CC)ccc2Sc2ccc(C)cc21 (stereo not drawn) [NCGC00424661-01] | 9.44 µM | 43.2 µM | -4.3643 M | – |
| O=C(O)c1ccccc1.OC(CNCC1CCCO1)Cn1c2ccc(Cl)cc2c2cc(Cl)ccc21 (stereo not drawn) [MLS000525403-01] | 1.19 µM | 38.5 µM | -4.4143 M | – |
| CCN1CCN(c2cc(C)c3cc(NC(=O)/C=C/c4ccc(C)cc4)ccc3n2)CC1 [NCGC00103850-01] | 4.22 µM | 43.2 µM | -4.3643 M | – |
| Cc1cc(OCCn2cc(C(=O)c3ccco3)c3ccccc32)ccc1Cl [NCGC00101880-01] | 5.31 µM | 15.3 µM | -4.8143 M | – |
| CCN(CC)CCNC(=O)c1ccc(NC(=O)c2ccc(S(=O)(=O)N3CCCCCC3)cc2)cc1 [MLS001157553-01] | 8.41 µM | 34.3 µM | -4.4643 M | – |
| Cc1ccc2nc(C)cc(Nc3ccc([N+](=O)[O-])cc3)c2c1 [MLS000710716-01] | 6.68 µM | 43.2 µM | -4.3643 M | – |
| CCCCN1C(=O)c2[nH]nc(-c3ccccc3O)c2C1c1ccc(OCc2ccccc2)cc1 (stereo not drawn) [NCGC00115502-01] | 5.96 µM | 43.2 µM | -4.3643 M | – |
